Test results from patent publication US20120225118A1, “COMPOSITIONS FOR DELIVERY OF INSOLUBLE AGENTS” (Latitude Pharmaceuticals Incorporated, priority 2009, published 2012).
In brackets after ≈: the same amount, converted by molar mass. Like-named read-outs stand apart in the source and are kept apart here.

Columns and labels:
[1] = 25° C., cited from earlier work
[2] = Solubility in aqueous 0.2% SDS; assay type: physicochemical; conditions: 37 °C, aqueous with cosolvent or surfactant or cyclodextrin, thermodynamic from solid
Method: About 5.5 mg itraconazole or an amount of the preparations obtained according to Example 3 containing 5.5 mg itraconazole was placed in 500 mL aqueous solution of 0.2% SDS. The mixture was stirred at 37° C. for 24 hours. About 5 mL of the solution was taken and filtered through a 0.45 μm filter. The filtrate was analyzed by HPLC for concentration of itraconazole.

SMILES: CC(=O)Oc1ccccc1C(=O)O [aspirin]
- volume of solvent required to dissolve 1 gram ([1]; ethanol): 5 mL
- volume of solvent required to dissolve 1 gram ([1]; water): 300 mL

SMILES: CCC(C)n1ncn(-c2ccc(N3CCN(c4ccc(OCC5COC(Cn6cncn6)(c6ccc(Cl)cc6Cl)O5)cc4)CC3)cc2)c1=O (stereo not drawn) [itraconazole]
- solubility at 24 h [2]: 6.44 ± 0.08 µg/mL (≈ 9.13 µM)
